Literature values as cited in patent US20080038318A1, “Composition; Use Of A Composition And A Method For Treating Obesity” (priority 2004, published 2008).

Test system: normal and obese volunteers
Details: in vivo

CCCCCCCCCCC[C@@H](C[C@@H]1OC(=O)[C@H]1CCCCCC)OC(=O)[C@H](CC(C)C)NC=O [orlistat]
reduction of the absorption of triacylglycerols: 30%
